Results reported in article PMC4301998 (Bioorganic & medicinal chemistry, 2014).
Read-outs that look alike come from different tables or passages of the source.

Tests used:
[1] = test system: nine human cancer cell lines and three non-cancerous cell lines; additional colon cancer cells; test: MTT cell survival assay, statements over several cell lines; type: cell-based; settings: for IC50: Homo sapiens
[2] = test system: HCT-116 colon cancer cells; test: MTT cell survival assay, HCT-116; type: cell-based; settings: Homo sapiens, HCT-116, read-out: IC50 ± SD, HCT-116
HEK293/ABCB1 cells = test: MTT cytotoxicity in ABCB1-overexpressing cells; type: cell-based, human; settings: HEK293/ABCB1 vs HEK293/pcDNA3.1, MTT
[3] = test system: HEK293/R2 (ABCG2-overexpressing cells); test: MTT cytotoxicity in ABCG2-overexpressing cells; type: cell-based, human; settings: HEK293/R2 vs HEK293/pcDNA3.1, MTT
HCT-116 cells = test: Chromosomal DNA fragmentation assay; type: cell-based, human; settings: 2.5 μM, 6 hr
[4] = test system: HCT-116, HCT-15, and HEK293 cells; test: Morphological analysis by microscopy; type: cell-based, human; settings: 0, 0.5, 2, or 10 μM, 68 hrs of treatment; HCT-116, HCT-15, HEK293
human PXR = target: T1, human PXR (Homo sapiens, UniProt O75469); test: PXR transactivation assay; settings: HepG2 reporter gene assay, 24 hr treatment, vs DMSO; IND-2 at 1 or 10 μM
T1 sequence (O75469 1-434): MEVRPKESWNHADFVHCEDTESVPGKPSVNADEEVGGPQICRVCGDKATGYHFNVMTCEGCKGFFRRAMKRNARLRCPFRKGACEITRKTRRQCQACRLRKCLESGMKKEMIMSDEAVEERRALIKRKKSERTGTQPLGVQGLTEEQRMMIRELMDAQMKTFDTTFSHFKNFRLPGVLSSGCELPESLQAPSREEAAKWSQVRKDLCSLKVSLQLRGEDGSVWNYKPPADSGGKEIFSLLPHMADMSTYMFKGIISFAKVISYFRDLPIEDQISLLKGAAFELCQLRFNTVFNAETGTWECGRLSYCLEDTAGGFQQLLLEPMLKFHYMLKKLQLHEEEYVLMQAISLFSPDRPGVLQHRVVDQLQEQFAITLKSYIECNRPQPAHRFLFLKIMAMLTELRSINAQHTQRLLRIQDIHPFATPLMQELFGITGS

HepG2 cells = settings: 24 hr, CellTiter-Glo
[5] = test system: S1-M1-80 cells (G482 mutant ABCG2-overexpressing); test: MTT cytotoxicity in drug-resistant colon cancer cells; type: cell-based, human; settings: S1-M1-80 vs S1, MTT; p < 0.001

In the case of `Cc1cc(=O)n2nc3nc4ccccc4cc3c2[nH]1` [IND-1, 2-Methylpyrimido[1”,2”:1,5]pyrazolo[3,4-b]quinoline-4(1H)-one], the IC50 ([1]; read-out: IC50 on the tested cells) is reported as > 40000 nM.
For `Cc1cc(Cl)n2nc3nc4ccccc4cc3c2n1` [IND-2, 4-Chloro-2-methyl pyrimido[1“,2”:1,5]pyrazolo[3,4-b]quinoline], the IC50 [2] was 634 ± 120 nM, the IC50 ([1]; DU-145, read-out: IC50 values against prostate cancer cells) was 800 to 1200 nM and the IC50 ([1]; read-out: IC50 values on colon cancer cells) was < 1000 nM. The “selectivity for inhibition of colon cancer cells relative to HEK293 cells” value ([1]; colon cancer cells vs HEK293) was 10-15 fold, the “selectivity relative to NIH/3T3 mouse fibroblast cells and MDCK cells” value ([1]; colon cancer cells vs NIH/3T3 and MDCK) was 20-40 fold and the “selectivity for colon cancer cells relative to other cancer cells” value ([1]; vs breast, ovarian, and hepatocellular carcinoma cells) was 10-30 fold. For the same compound, the “resistance of ABCB1-overexpressing cells” value (HEK293/ABCB1 cells) was “no substantial resistance”, the “resistance of ABCG2-overexpressing cells” value [3] was “no substantial resistance” and the “fragmentation of chromosomal DNA” value (HCT-116 cells) was “led to fragmentation of chromosomal DNA”. For the same compound, the “morphological changes of cells” value [4] was “morphological changes”, the “PXR transactivation of CYP3A4 promoter activity” value (human PXR) was “did not affect PXR transactivation” and the “HepG2 cell viability (cytotoxicity)” value (HepG2 cells; 1 μM) was “non-cytotoxic”. For the same compound, the “HepG2 cell viability (cytotoxicity)” value (HepG2 cells; 10 μM) was “marginally cytotoxic”.
In the case of `Cc1cc(N(C)C)n2nc3nc4ccccc4cc3c2n1` [IND-3, N,N,2-Trimethyl benzopyrido[2’,3’:3,4]pyrazolo[1,5-a]pyrimidin-4-amine], the IC50 ([1]; read-out: IC50 values against ovarian and breast cancer cells) is reported as 44000 to 50000 nM.
In the case of `CCc1c2c(nc3ccc(O)cc13)-c1cc3c(c(=O)n1C2)COC(=O)[C@]3(O)CC` [SN-38], the “resistance of S1-M1-80 cells to the drug” value [5] is reported as “significant resistance”.
With `CC[C@@]1(O)C(=O)OCc2c1cc1n(c2=O)Cc2cc3c(CN(C)C)c(O)ccc3nc2-1` [topotecan] the “resistance of S1-M1-80 cells to the drug” value [5] was “significant resistance”.
